{"source": "patent US20110105623A1", "about": "(Biogenic Innovations, LLC, priority 2009, published 2011)", "key": {"Pseudomonas aeruginosa": {"tested_on": "Pseudomonas aeruginosa", "assay": "USP <51> AET in cosmetic cream/composition", "format": "cell-based", "settings": "for AET microorganism count: 48 hrs-28 days; for Log Reduction from Initial Microorganism Inoculum: 14, 28 Days"}, "Salmonella typhimurium": {"tested_on": "Salmonella typhimurium", "assay": "USP AET, MSM in TSB", "format": "cell-based", "set-up": "key: Colonies too numerous to count (TNTC)", "settings": "48 hrs"}, "[1]": {"tested_on": "Bifidobacterium bifidum ATCC #29521", "assay": "Growth in MRS broth + L-cysteine fortified with MSM"}}, "data": [{"substance": "Methylsulfonylmethane [MSM]", "values": [{"measurement": "AET microorganism count", "setting": "Pseudomonas aeruginosa; 10% MSM in Preservative Free Cosmetic Composition #1, 48 hours after inoculation", "result": "7.3 × 10^3"}, {"measurement": "AET microorganism count", "setting": "Pseudomonas aeruginosa; 10% MSM in Preservative Free Cosmetic Composition #1, 7 days after inoculation", "result": "<10"}, {"measurement": "AET microorganism count", "setting": "Pseudomonas aeruginosa; 10% MSM in cosmetic cream without preservative", "result": "<10"}, {"measurement": "Log Reduction from Initial Microorganism Inoculum", "setting": "Pseudomonas aeruginosa; 10% MSM in preservative-free jojoba cream", "result": 5.3, "unit": "log"}, {"measurement": "Log Reduction from Initial Microorganism Inoculum", "setting": "Pseudomonas aeruginosa; 10% MSM, Composition #1", "result": 5.8, "unit": "log"}, {"measurement": "Log Reduction from Initial Microorganism Inoculum", "setting": "Pseudomonas aeruginosa; 10% MSM, Composition #2", "result": 5.8, "unit": "log"}, {"measurement": "AET microorganism count", "setting": "Salmonella typhimurium; 1:100 dilution of MSM", "result": "TNTC"}, {"measurement": "AET microorganism count", "setting": "Salmonella typhimurium; 1:1000 dilution of MSM", "result": "TNTC"}, {"measurement": "Log Growth of Bifidobacteruim bifidum in Media Fortified with MSM", "setting": "[1]; 0.125% MSM, Hr 0", "result": 1.12, "unit": "logs"}, {"measurement": "Log Growth of Bifidobacteruim bifidum in Media Fortified with MSM", "setting": "[1]; 0.125% MSM, Hr 8", "result": 2.89, "unit": "logs"}, {"measurement": "Log Growth of Bifidobacteruim bifidum in Media Fortified with MSM", "setting": "[1]; 0.125% MSM, Hr 16", "result": 7.85, "unit": "logs"}, {"measurement": "Log Growth of Bifidobacteruim bifidum in Media Fortified with MSM", "setting": "[1]; 0.125% MSM, Hr 24", "result": 9.06, "unit": "logs"}, {"measurement": "Log Growth of Bifidobacteruim bifidum in Media Fortified with MSM", "setting": "[1]; 0.125% MSM, Hr 32", "result": 11.45, "unit": "logs"}, {"measurement": "Log Growth of Bifidobacteruim bifidum in Media Fortified with MSM", "setting": "[1]; 0.125% MSM, Hr 40", "result": 10.80, "unit": "logs"}, {"measurement": "Log Growth of Bifidobacteruim bifidum in Media Fortified with MSM", "setting": "[1]; 0.125% MSM, Hr 48", "result": 8.22, "unit": "logs"}, {"measurement": "Log Growth of Bifidobacteruim bifidum in Media Fortified with MSM", "setting": "[1]; 0.125% MSM, Hr 56", "result": 7.25, "unit": "logs"}, {"measurement": "Log Growth of Bifidobacteruim bifidum in Media Fortified with MSM", "setting": "[1]; 0.125% MSM, Hr 64", "result": 8.86, "unit": "logs"}, {"measurement": "Log Growth of Bifidobacteruim bifidum in Media Fortified with MSM", "setting": "[1]; 0.125% MSM, Hr 72", "result": 6.59, "unit": "logs"}, {"measurement": "Log Growth of Bifidobacteruim bifidum in Media Fortified with MSM", "setting": "[1]; 0.125% MSM, Hr 80", "result": 9.12, "unit": "logs"}, {"measurement": "Log Growth of Bifidobacteruim bifidum in Media Fortified with MSM", "setting": "[1]; 0.125% MSM, Hr 88", "result": 9.12, "unit": "logs"}, {"measurement": "Log Growth of Bifidobacteruim bifidum in Media Fortified with MSM", "setting": "[1]; 0.125% MSM, Hr 96", "result": "<6.00", "unit": "logs"}, {"measurement": "Log Growth of Bifidobacteruim bifidum in Media Fortified with MSM", "setting": "[1]; 0.5% MSM, Hr 0", "result": 1.00, "unit": "logs"}, {"measurement": "Log Growth of Bifidobacteruim bifidum in Media Fortified with MSM", "setting": "[1]; 0.5% MSM, Hr 8", "result": 2.84, "unit": "logs"}, {"measurement": "Log Growth of Bifidobacteruim bifidum in Media Fortified with MSM", "setting": "[1]; 0.5% MSM, Hr 16", "result": 7.45, "unit": "logs"}, {"measurement": "Log Growth of Bifidobacteruim bifidum in Media Fortified with MSM", "setting": "[1]; 0.5% MSM, Hr 24", "result": 8.81, "unit": "logs"}, {"measurement": "Log Growth of Bifidobacteruim bifidum in Media Fortified with MSM", "setting": "[1]; 0.5% MSM, Hr 32", "result": 11.22, "unit": "logs"}, {"measurement": "Log Growth of Bifidobacteruim bifidum in Media Fortified with MSM", "setting": "[1]; 0.5% MSM, Hr 40", "result": 12.09, "unit": "logs"}, {"measurement": "Log Growth of Bifidobacteruim bifidum in Media Fortified with MSM", "setting": "[1]; 0.5% MSM, Hr 48", "result": 9.39, "unit": "logs"}, {"measurement": "Log Growth of Bifidobacteruim bifidum in Media Fortified with MSM", "setting": "[1]; 0.5% MSM, Hr 56", "result": 9.51, "unit": "logs"}, {"measurement": "Log Growth of Bifidobacteruim bifidum in Media Fortified with MSM", "setting": "[1]; 0.5% MSM, Hr 64", "result": 10.34, "unit": "logs"}, {"measurement": "Log Growth of Bifidobacteruim bifidum in Media Fortified with MSM", "setting": "[1]; 0.5% MSM, Hr 72", "result": 8.35, "unit": "logs"}, {"measurement": "Log Growth of Bifidobacteruim bifidum in Media Fortified with MSM", "setting": "[1]; 0.5% MSM, Hr 80", "result": 10.38, "unit": "logs"}, {"measurement": "Log Growth of Bifidobacteruim bifidum in Media Fortified with MSM", "setting": "[1]; 0.5% MSM, Hr 88", "result": 9.70, "unit": "logs"}, {"measurement": "Log Growth of Bifidobacteruim bifidum in Media Fortified with MSM", "setting": "[1]; 0.5% MSM, Hr 96", "result": 8.82, "unit": "logs"}, {"measurement": "log growth", "setting": "[1]; 0.5% MSM, hour 96", "result": 8.82, "unit": "logs"}, {"measurement": "log growth (estimated, outside the countable range)", "setting": "[1]; 1% MSM, Hour 96", "result": "less than 6 logs"}, {"measurement": "Log Growth of Bifidobacteruim bifidum in Media Fortified with MSM", "setting": "[1]; 1% MSM, Hr 0", "result": 1.00, "unit": "logs"}, {"measurement": "Log Growth of Bifidobacteruim bifidum in Media Fortified with MSM", "setting": "[1]; 1% MSM, Hr 8", "result": 2.73, "unit": "logs"}, {"measurement": "Log Growth of Bifidobacteruim bifidum in Media Fortified with MSM", "setting": "[1]; 1% MSM, Hr 16", "result": 7.73, "unit": "logs"}, {"measurement": "Log Growth of Bifidobacteruim bifidum in Media Fortified with MSM", "setting": "[1]; 1% MSM, Hr 24", "result": 8.81, "unit": "logs"}, {"measurement": "Log Growth of Bifidobacteruim bifidum in Media Fortified with MSM", "setting": "[1]; 1% MSM, Hr 32", "result": 11.49, "unit": "logs"}, {"measurement": "Log Growth of Bifidobacteruim bifidum in Media Fortified with MSM", "setting": "[1]; 1% MSM, Hr 40", "result": 11.19, "unit": "logs"}, {"measurement": "Log Growth of Bifidobacteruim bifidum in Media Fortified with MSM", "setting": "[1]; 1% MSM, Hr 48", "result": 10.43, "unit": "logs"}, {"measurement": "Log Growth of Bifidobacteruim bifidum in Media Fortified with MSM", "setting": "[1]; 1% MSM, Hr 56", "result": 10.57, "unit": "logs"}, {"measurement": "Log Growth of Bifidobacteruim bifidum in Media Fortified with MSM", "setting": "[1]; 1% MSM, Hr 64", "result": 10.66, "unit": "logs"}, {"measurement": "Log Growth of Bifidobacteruim bifidum in Media Fortified with MSM", "setting": "[1]; 1% MSM, Hr 72", "result": 8.34, "unit": "logs"}, {"measurement": "Log Growth of Bifidobacteruim bifidum in Media Fortified with MSM", "setting": "[1]; 1% MSM, Hr 80", "result": 9.43, "unit": "logs"}, {"measurement": "Log Growth of Bifidobacteruim bifidum in Media Fortified with MSM", "setting": "[1]; 1% MSM, Hr 88", "result": 10.41, "unit": "logs"}, {"measurement": "Log Growth of Bifidobacteruim bifidum in Media Fortified with MSM", "setting": "[1]; 1% MSM, Hr 96", "result": "<6.00", "unit": "logs"}, {"measurement": "Log Growth of Bifidobacteruim bifidum in Media Fortified with MSM", "setting": "[1]; 5% MSM, Hr 0", "result": 1.12, "unit": "logs"}, {"measurement": "Log Growth of Bifidobacteruim bifidum in Media Fortified with MSM", "setting": "[1]; 5% MSM, Hr 8", "result": 2.04, "unit": "logs"}, {"measurement": "Log Growth of Bifidobacteruim bifidum in Media Fortified with MSM", "setting": "[1]; 5% MSM, Hr 16", "result": 6.10, "unit": "logs"}, {"measurement": "Log Growth of Bifidobacteruim bifidum in Media Fortified with MSM", "setting": "[1]; 5% MSM, Hr 24", "result": 8.43, "unit": "logs"}, {"measurement": "Log Growth of Bifidobacteruim bifidum in Media Fortified with MSM", "setting": "[1]; 5% MSM, Hr 32", "result": 11.13, "unit": "logs"}]}]}
